Source: ChEMBL document CHEMBL5390242, “Design, Synthesis, and Antitumor Efficacy of Substituted 2-Amino[1,2,4]triazolopyrimidines and Related Heterocycles as Dual Inhibitors for Microtubule Polymerization and Janus Kinase 2” (J Med Chem, 2023)
pIC50: −log10 of the molar value. Calls of active or inactive are those of the source. The calls are words filed in the database; no cut-off is given here.

Key:
A549 [1] = assay: Induction of mitochondrial membrane potential loss in human A549 cells by measuring red fluorescence at 500 nM incubated for 16 hrs by JC-1 staining based flow cytometry analysis (reference value: 99.3 %); assay type: functional
A2780/Taxol = assay: Antiproliferative activity against human A2780T cells assessed as cell growth inhibition incubated for 48 hrs by MTT assay; assay type: functional, cell-based
A549 [2] = assay: Antiproliferative activity against human A549 cells assessed as cell growth inhibition incubated for 48 hrs by MTT assay; assay type: functional, cell-based; settings: A549, 48 h
A549 [3] = assay: Induction of apoptosis in human A549 cells assessed as viable cells at 500 nM incubated for 24 hrs by Annexin V-FITC/PI staining based flow cytometry (reference value: 93 %); assay type: functional; settings: read-out: Activity
CWR22R = assay: Cytotoxicity against human 22Rv1 cells assessed as cell growth inhibition incubated for 48 hrs by MTT assay; assay type: functional, cell-based; settings: 22Rv1, 48 h
[4] = Cytotoxicity against human HaCaT cells assessed as cell growth inhibition incubated for 48 hrs by MTT assay; assay type: toxicity, cell-based
[5] = Antiproliferative activity against Chinese hamster CHO-K1 cells assessed as cell growth inhibition incubated for 48 hrs by MTT assay; assay type: toxicity, cell-based, Cricetulus griseus
A549 [6] = assay: Induction of mitochondrial membrane potential loss in human A549 cells by measuring green fluorescence at 500 nM incubated for 16 hrs by JC-1 staining based flow cytometry analysis (reference value: 0.7 %); assay type: functional
BXPC-3 = assay: Antiproliferative activity against human BXPC-3 cells assessed as cell growth inhibition incubated for 48 hrs by MTT assay; assay type: functional, cell-based; settings: BXPC-3, 48 h
[7] = Cytotoxicity against human ARPE-19 cells assessed as cell growth inhibition incubated for 48 hrs by MTT assay; assay type: toxicity, cell-based
[8] = Antiproliferative activity against human HCT-8/VCR cells assessed as cell growth inhibition incubated for 48 hrs by MTT assay; assay type: functional, cell-based
PC-3 = assay: Antiproliferative activity against human PC-3 cells assessed as cell growth inhibition incubated for 48 hrs by MTT assay; assay type: functional, cell-based; settings: PC-3, 48 h
[9] = molecular target: Tyrosine-protein kinase JAK1 (Homo sapiens, UniProt P23458); assay: Inhibition of JAK1 (unknown origin) using Poly-(Glu,Tyr 4:1) peptide as substrate in presence of ATP by ADP-Glo reagent based assay
Chain of Tyrosine-protein kinase JAK1 (P23458 whole entry): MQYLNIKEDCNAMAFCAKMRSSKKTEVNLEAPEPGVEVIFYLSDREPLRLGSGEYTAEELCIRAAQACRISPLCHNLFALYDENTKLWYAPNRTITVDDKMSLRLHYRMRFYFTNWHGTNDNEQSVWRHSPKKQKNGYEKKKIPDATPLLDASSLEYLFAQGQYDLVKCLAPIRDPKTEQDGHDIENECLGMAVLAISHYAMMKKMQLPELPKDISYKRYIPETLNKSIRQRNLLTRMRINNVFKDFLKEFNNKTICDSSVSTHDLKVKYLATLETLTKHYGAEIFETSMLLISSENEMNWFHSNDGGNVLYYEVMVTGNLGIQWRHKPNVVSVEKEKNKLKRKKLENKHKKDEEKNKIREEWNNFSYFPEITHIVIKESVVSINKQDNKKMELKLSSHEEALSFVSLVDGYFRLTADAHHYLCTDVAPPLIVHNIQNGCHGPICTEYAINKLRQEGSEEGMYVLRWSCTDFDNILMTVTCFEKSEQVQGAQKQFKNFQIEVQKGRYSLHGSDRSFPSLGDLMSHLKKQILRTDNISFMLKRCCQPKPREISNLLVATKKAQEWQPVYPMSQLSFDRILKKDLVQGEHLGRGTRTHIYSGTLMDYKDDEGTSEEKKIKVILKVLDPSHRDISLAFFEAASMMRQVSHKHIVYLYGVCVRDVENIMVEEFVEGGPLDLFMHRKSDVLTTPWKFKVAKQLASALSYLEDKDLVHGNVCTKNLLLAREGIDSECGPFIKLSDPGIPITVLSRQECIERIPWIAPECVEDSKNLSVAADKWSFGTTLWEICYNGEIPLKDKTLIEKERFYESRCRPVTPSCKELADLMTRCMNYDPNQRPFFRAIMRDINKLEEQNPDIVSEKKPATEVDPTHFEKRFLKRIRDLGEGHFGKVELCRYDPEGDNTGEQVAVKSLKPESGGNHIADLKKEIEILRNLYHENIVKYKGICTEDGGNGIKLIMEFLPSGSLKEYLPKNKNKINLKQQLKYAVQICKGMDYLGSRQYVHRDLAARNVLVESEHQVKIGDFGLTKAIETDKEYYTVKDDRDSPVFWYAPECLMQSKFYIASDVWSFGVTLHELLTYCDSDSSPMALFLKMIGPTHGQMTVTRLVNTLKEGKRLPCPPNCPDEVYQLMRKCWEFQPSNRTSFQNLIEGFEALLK

A549 [10] = assay: Induction of apoptosis in human A549 cells assessed as necrotic cells at 500 nM incubated for 24 hrs by Annexin V-FITC/PI staining based flow cytometry (reference value: 0.67 %); assay type: functional
MCF7 = assay: cells; settings: Homo sapiens, MCF7, 48 h
Description: Antiproliferative activity against human MCF7 cells assessed as cell growth inhibition incubated for 48 hrs by MTT assay

[11] = Antiproliferative activity against Chinese hamster CHO cells assessed as cell growth inhibition incubated for 48 hrs by MTT assay; assay type: toxicity, cell-based, Cricetulus griseus
COLO 205 = assay: Cytotoxicity against human COLO 205 cells assessed as cell growth inhibition incubated for 48 hrs by MTT assay; assay type: functional, cell-based; settings: COLO 205, 48 h
[12] = Metabolic stability in mouse liver microsomes assessed as half life incubated for 10 mins in presence of NADPH by LC-MS/MS analysis; assay type: ADME, Microsome
A549 [13] = assay: Induction of apoptosis in human A549 cells assessed as early apoptotic cells at 500 nM incubated for 24 hrs by Annexin V-FITC/PI staining based flow cytometry (reference value: 4.61 %); assay type: functional
[14] = molecular target: T1, Tyrosine-protein kinase JAK2 (Homo sapiens, UniProt O60674); assay: Inhibition of JAK2 (unknown origin) using Poly-(Glu,Tyr 4:1) peptide as substrate in presence of ATP by ADP-Glo reagent based assay
T1 sequence (O60674 whole entry): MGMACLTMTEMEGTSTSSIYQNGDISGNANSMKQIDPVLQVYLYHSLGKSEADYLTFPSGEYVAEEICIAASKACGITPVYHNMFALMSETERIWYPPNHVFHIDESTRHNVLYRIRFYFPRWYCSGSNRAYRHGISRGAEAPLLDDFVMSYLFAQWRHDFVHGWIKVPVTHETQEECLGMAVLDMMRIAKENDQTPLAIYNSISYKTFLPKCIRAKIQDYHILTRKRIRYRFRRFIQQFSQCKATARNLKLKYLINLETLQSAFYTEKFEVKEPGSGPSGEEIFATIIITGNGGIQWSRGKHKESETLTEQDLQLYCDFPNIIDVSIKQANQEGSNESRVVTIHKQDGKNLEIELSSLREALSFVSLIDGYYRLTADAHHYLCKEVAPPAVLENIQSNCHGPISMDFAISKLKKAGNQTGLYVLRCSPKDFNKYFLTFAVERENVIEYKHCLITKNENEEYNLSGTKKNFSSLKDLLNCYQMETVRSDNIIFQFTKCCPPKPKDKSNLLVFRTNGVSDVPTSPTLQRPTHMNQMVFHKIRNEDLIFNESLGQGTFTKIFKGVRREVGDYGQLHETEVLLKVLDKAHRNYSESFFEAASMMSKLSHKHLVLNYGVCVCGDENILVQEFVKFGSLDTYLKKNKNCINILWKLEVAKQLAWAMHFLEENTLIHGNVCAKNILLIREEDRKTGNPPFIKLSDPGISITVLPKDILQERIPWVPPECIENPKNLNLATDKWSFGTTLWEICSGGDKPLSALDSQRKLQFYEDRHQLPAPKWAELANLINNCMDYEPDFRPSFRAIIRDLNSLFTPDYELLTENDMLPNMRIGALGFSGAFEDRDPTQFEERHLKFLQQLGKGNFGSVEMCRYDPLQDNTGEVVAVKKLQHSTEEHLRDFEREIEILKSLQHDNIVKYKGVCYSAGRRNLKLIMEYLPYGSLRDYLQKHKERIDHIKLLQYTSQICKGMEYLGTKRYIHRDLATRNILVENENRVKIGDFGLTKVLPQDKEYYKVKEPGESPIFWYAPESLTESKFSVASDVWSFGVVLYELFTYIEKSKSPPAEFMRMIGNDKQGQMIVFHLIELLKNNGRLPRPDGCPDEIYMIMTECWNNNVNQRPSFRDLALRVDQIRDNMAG

HCT-8 = assay: Antiproliferative activity against human HCT-8 cells assessed as cell growth inhibition incubated for 48 hrs by MTT assay; assay type: functional, cell-based; settings: HCT-8, 48 h
KP-4 = assay: Antiproliferative activity against human KP-4 cells assessed as cell growth inhibition incubated for 48 hrs by MTT assay; assay type: functional, cell-based; settings: KP-4, 48 h
[15] = Cytotoxicity against human L02 cells assessed as cell growth inhibition incubated for 48 hrs by MTT assay; assay type: toxicity, cell-based
HepG2 = assay: Cytotoxicity against human HepG2 cells assessed as cell growth inhibition incubated for 48 hrs by MTT assay; assay type: functional, cell-based; settings: HepG2, 48 h
NCI/ADR-RES = assay: cells; settings: Homo sapiens, 48 h
Description: Antiproliferative activity against human MCF7ADR cells assessed as cell growth inhibition incubated for 48 hrs by MTT assay

A549 [16] = assay: Induction of apoptosis in human A549 cells assessed as late apoptotic cells at 500 nM incubated for 24 hrs by Annexin V-FITC/PI staining based flow cytometry (reference value: 1.72 %); assay type: functional
[17] = Antiproliferative activity against human A549/DDP cells assessed as cell growth inhibition incubated for 48 hrs by MTT assay; assay type: functional, cell-based
HT-29 = assay: Antiproliferative activity against human HT-29 cells assessed as cell growth inhibition incubated for 48 hrs by MTT assay; assay type: functional, cell-based; settings: HT-29, 48 h
A2780 = assay: Antiproliferative activity against human A2780 cells assessed as cell growth inhibition incubated for 48 hrs by MTT assay; assay type: functional, cell-based; settings: A2780, 48 h
[18] = molecular target: T1, Tyrosine-protein kinase JAK2; assay: Inhibition of JAK2 (unknown origin) using Poly-(Glu,Tyr 4:1) peptide as substrate at 1 uM in presence of ATP by ADP-Glo reagent based assay relative to control
HeLa = assay: Antiproliferative activity against human HeLa cells assessed as cell growth inhibition incubated for 48 hrs by MTT assay; assay type: functional, cell-based
A549 [19] = assay: Induction of apoptosis in human A549 cells assessed as late apoptotic cells at 50 nM incubated for 24 hrs by Annexin V-FITC/PI staining based flow cytometry (reference value: 1.72 %); assay type: functional
A549 [20] = assay: Induction of mitochondrial membrane potential loss in human A549 cells by measuring red fluorescence at 50 nM incubated for 16 hrs by JC-1 staining based flow cytometry analysis (reference value: 99.3 %); assay type: functional
A549 [21] = assay: Induction of apoptosis in human A549 cells assessed as viable cells at 50 nM incubated for 24 hrs by Annexin V-FITC/PI staining based flow cytometry (reference value: 93 %); assay type: functional; settings: read-out: Activity
A549 [22] = assay: Induction of apoptosis in human A549 cells assessed as necrotic cells at 50 nM incubated for 24 hrs by Annexin V-FITC/PI staining based flow cytometry (reference value: 0.67 %); assay type: functional
A549 [23] = assay: Induction of apoptosis in human A549 cells assessed as early apoptotic cells at 50 nM incubated for 24 hrs by Annexin V-FITC/PI staining based flow cytometry (reference value: 4.61 %); assay type: functional
A549 [24] = assay: Induction of mitochondrial membrane potential loss in human A549 cells by measuring green fluorescence at 50 nM incubated for 16 hrs by JC-1 staining based flow cytometry analysis (reference value: 0.7 %); assay type: functional
A549 [25] = assay: Antitumor activity against human A549 cells xenografted in Balb/c mouse assessed as reduction in tumor weight at 50 mg/kg,ip administration measured after 31 days; assay type: functional; parameters: scale not given: the % may be the effect or the level left; settings: time 31 day
A549 [26] = assay: Antitumor activity against human A549 cells xenografted in Balb/c mouse assessed as tumor size at 50 mg/kg,ip administration measured after 31 days; assay type: functional; settings: time 31 day
[27] = Cmax in CD-1 mouse at 13 mg/kg,ip measured upto 24 hrs by HPLC-MS/MS analysis; assay type: ADME, organism-based; parameters: time < 24 hrs, dose 13 mg/kg, route ip; settings: in vivo
[28] = MRT (0 to infinity) in CD-1 mouse at 13 mg/kg,ip measured upto 24 hrs by HPLC-MS/MS analysis; assay type: ADME, organism-based; settings: in vivo
[29] = AUC (0 to t) in CD-1 mouse at 13 mg/kg,ip measured upto 24 hrs by HPLC-MS/MS analysis; assay type: ADME, organism-based; parameters: time < 24 hrs, dose 13 mg/kg, route ip; settings: in vivo
[30] = MRT (0 to t) in CD-1 mouse at 13 mg/kg,ip measured upto 24 hrs by HPLC-MS/MS analysis; assay type: ADME, organism-based; settings: in vivo
[31] = Toxicity in Balb/c mouse xenografted with human A549 cells assessed as change in body weight at 50 mg/kg,ip administration measured after 31 days; assay type: organism-based; settings: in vivo, 744 h, time 31 day
[32] = Half life in CD-1 mouse at 13 mg/kg,ip measured upto 24 hrs by HPLC-MS/MS analysis; assay type: ADME, organism-based; settings: in vivo
[33] = Acute toxicity in C57BL/6 mouse assessed as maximum tolerated dose administered intravenously for 5 consecutive days; settings: in vivo, route iv
A549 [34] = assay: Antitumor activity against human A549 cells xenografted in Balb/c mouse assessed as increase in tumor necrotic cells at 50 mg/kg,ip administration measured after 31 days by Hematoxylin-eosin staining based microscopy; assay type: functional, organism-based; settings: time 31.0 day
[35] = Tmax in CD-1 mouse at 13 mg/kg,ip measured upto 24 hrs by HPLC-MS/MS analysis; assay type: ADME, organism-based; settings: in vivo
[36] = AUC (0 to infinity) in CD-1 mouse at 13 mg/kg,ip measured upto 24 hrs by HPLC-MS/MS analysis; assay type: ADME, organism-based; parameters: time < 24 hrs, dose 13 mg/kg, route ip; settings: in vivo

CN1CCN(c2cccc(Nc3nc4c(-c5ccc(S(C)(=O)=O)cc5)cccn4n3)c2)CC1
Activity (A549 [1]): 96.5%
pIC50 (A2780/Taxol): 6.40
pIC50 (A549 [2]): 6.45
viability at 0.5 µM (A549 [3]): 65.7%
pIC50 (CWR22R): 5.24
IC50 at 48 h [4]: 2830 nM
IC50 at 48 h [5]: 216 nM
Activity (A549 [6]): 3.5%
pIC50 (BXPC-3): 6.14
IC50 at 48 h [7]: 4930 nM
pIC50 [8]: 5.24
pIC50 (PC-3): 4.82
pIC50 [9]: 7.92
Activity (A549 [10]): 2.8%
pIC50 (MCF7): 5.91
IC50 at 48 h [11]: 172 nM
pIC50 (COLO 205): 5.81
half-life [12]: 0.218 h
Activity (A549 [13]): 14.9%
pIC50 [14]: 8.22
pIC50 (HCT-8): 5.94
pIC50 (KP-4): 6.43
IC50 at 48 h [15]: 388 nM
pIC50 (HepG2): 5.69
pIC50 (NCI/ADR-RES): 5.45
Activity (A549 [16]): 16.6%
pIC50 [17]: 5.82
pIC50 (HT-29): 6.02
pIC50 (A2780): 6.54
inhibition [18]: 99%
pIC50 (HeLa): 5.90

COc1cc2c(c(OC)c1OC)-c1ccc(OC)c(=O)cc1[C@@H](NC(C)=O)CC2 [COLCHICINE]
Activity (A549 [19]): 24.1%
pIC50 (A549 [2]): 7.19
pIC50 (CWR22R): 7.74
IC50 at 48 h [4]: 9.3 nM
IC50 at 48 h [5]: 9200 nM
pIC50 (BXPC-3): 7.39
IC50 at 48 h [7]: 21.8 nM
Activity (A549 [20]): 93.9%
viability at 0.05 µM (A549 [21]): 57%
pIC50 (PC-3): 7.10
pIC50 (MCF7): 7.34
IC50 at 48 h [11]: 697 nM
pIC50 (COLO 205): 7.89
IC50 at 48 h [15]: 269 nM
Activity (A549 [22]): 3.6%
pIC50 (HepG2): 7.12
Activity (A549 [23]): 15.3%
pIC50 (HT-29): 7.51
Activity (A549 [24]): 0.1%
inhibition [18]: 5.7%

COc1cc(-c2nccc3nc(Nc4cccc5c4ccn5P(=O)([O-])[O-])nn23)cc(OC)c1OC.[Na+].[Na+]
Activity (A549 [25]): 91%
pIC50 (A549 [2]): 7.92
Activity (A549 [26]): 204.6 mm3
Cmax [27]: 334 ng/mL
MRT inf [28]: 2.4 h
AUC(0-t) at 24 h [29]: 850 ng·h/mL
pIC50 (BXPC-3): 8.05
MRT last at 24 h [30]: 1.8 h
pIC50 (MCF7): 7.32
pIC50 (KP-4): 7.38
Activity [31]: Non-Toxic
half-life [32]: 1.8 h
MTD at 5 days [33]: 100 mg/kg
Activity (A549 [34]): Active
Tmax [35]: 6 min
pIC50 (HeLa): 7.96
AUC(0-inf) [36]: 908 ng·h/mL
